Results reported in article PMC4775997, “Imidazopyridazine Inhibitors of Plasmodium falciparum Calcium-Dependent Protein Kinase 1 Also Target Cyclic GMP-Dependent Protein Kinase and Heat Shock Protein 90 To Kill the Parasite at Different Stages of Intracellular Development” (Antimicrobial Agents and Chemotherapy, 2016).
Read-outs that look alike come from different tables or passages of the source.

Tests used:
[1] = tested on: P. falciparum 3D7; test: SYBR green I growth assay, wild-type parasites; assay type: cell-based, Plasmodium falciparum
[2] = target: T1, PfPKG (Plasmodium falciparum, UniProt Q8I719); test: Microfluidic fluorescent shift assay of cGMP-dependent protein kinase activity; assay type: biochemical; conditions: read-out: Enzyme inhibition IC50, PKG
T1 construct: plasmids (pTrcHisC) encoding full-length PfPKG and PfPKG T618Q with N-terminal His tags; His tag (N); made in house; host or cells: E. coli Rosetta2(DE3)

[3] = target: T2, PfPKG T618Q (Plasmodium falciparum, UniProt Q8I719, T618Q); test: biochemical; assay type: biochemical; conditions: for IC50: read-out: Enzyme inhibition IC50, PKG T618Q
T2 construct: plasmids (pTrcHisC) encoding full-length PfPKG and PfPKG T618Q with N-terminal His tags; His tag (N); made in house; host or cells: E. coli Rosetta2(DE3)

[4] = target: CDPK1 (Plasmodium falciparum, UniProt P62344); test: biochemical; assay type: biochemical; conditions: read-out: Enzyme inhibition IC50, CDPK1
[5] = tested on: P. falciparum 3D7; test: Microscopic examination of Giemsa-stained smears (stage of action); conditions: for Stage of action (before or after DNA synthesis): Table S1, ring-stage parasites, 10x EC50 for 48 h; for Stage of action: ring stage parasites treated with 10 times the 96-h EC50 for 48 h
[6] = tested on: 3D7 PKG T618Q; test: microbe, parasite or virus in culture; assay type: cell-based, Plasmodium falciparum; conditions: for EC50: read-out: Parasite inhibition EC50, 3D7 PKG T618Q; for Ratio 3D7 PKG T618Q/3D7: Table S2
[7] = Table S1, single experiment with duplicate samples, or mean of triplicate experiments (SD), read-out: EC50 48 hours
[8] = Table S1, single experiment with duplicate samples, or mean of triplicate experiments (SD), read-out: EC50 96 hours
[9] = Plasmodium falciparum, 3D7, 48 h, read-out: EC50 after treatment for 48 h
[10] = Plasmodium falciparum, 3D7, 96 h, read-out: EC50 96 hours
[11] = Plasmodium falciparum, 3D7, 96 h, read-out: EC50 after treatment for 96 h
[12] = Plasmodium falciparum, 3D7, 96 h, read-out: Parasite inhibition EC50, 3D7
[13] = Plasmodium falciparum, 3D7, 96 h
[14] = Table 2, SYBR green I, 96 h, single experiment, or mean (SD) of duplicate assays, read-out: Parasite inhibition EC50, 3D7
[15] = Table 2, SYBR green I, 96 h, single experiment, or mean (SD) of duplicate assays

T2 sequence (Q8I719 whole entry T618Q): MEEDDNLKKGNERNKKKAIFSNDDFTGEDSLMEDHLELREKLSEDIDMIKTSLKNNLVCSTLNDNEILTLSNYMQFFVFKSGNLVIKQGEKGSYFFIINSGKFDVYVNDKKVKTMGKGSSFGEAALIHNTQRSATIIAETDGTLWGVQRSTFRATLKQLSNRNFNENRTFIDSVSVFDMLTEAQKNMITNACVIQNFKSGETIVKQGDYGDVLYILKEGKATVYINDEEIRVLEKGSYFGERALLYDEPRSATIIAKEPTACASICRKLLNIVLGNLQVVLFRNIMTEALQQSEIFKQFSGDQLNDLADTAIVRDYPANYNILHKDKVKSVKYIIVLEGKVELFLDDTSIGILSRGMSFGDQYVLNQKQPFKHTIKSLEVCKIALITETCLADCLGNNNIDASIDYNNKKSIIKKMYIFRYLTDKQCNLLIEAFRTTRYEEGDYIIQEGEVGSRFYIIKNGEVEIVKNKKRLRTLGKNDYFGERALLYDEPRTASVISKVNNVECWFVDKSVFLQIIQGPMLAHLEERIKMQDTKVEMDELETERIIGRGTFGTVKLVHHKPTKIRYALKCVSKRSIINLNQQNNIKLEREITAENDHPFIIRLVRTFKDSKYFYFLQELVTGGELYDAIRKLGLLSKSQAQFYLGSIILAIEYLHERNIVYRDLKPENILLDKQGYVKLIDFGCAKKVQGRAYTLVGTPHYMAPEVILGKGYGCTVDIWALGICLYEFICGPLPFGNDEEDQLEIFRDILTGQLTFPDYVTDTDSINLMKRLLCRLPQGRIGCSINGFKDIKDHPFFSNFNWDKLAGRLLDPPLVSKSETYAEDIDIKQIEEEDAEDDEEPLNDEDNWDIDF
Chain of CDPK1 (P62344 whole entry): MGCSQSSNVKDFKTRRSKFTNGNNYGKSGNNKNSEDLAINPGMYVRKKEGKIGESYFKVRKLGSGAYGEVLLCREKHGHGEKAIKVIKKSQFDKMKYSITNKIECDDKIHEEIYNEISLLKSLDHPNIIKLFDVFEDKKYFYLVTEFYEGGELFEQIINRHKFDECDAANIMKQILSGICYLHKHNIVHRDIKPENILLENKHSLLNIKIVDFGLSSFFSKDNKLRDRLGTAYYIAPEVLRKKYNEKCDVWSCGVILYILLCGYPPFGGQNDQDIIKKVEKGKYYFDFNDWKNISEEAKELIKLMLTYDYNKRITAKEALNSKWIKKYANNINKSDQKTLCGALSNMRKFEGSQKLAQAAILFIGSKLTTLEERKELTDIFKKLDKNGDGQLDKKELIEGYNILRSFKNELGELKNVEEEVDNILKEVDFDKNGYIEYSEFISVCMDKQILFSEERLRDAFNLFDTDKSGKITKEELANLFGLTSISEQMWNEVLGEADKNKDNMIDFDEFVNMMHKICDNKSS

| SMILES | EC50 [1, 7] | EC50 [1, 8] | IC50 ([2]; Table S2) | IC50 ([3]; Table S2) | ratio EC5048:EC5096 ([1]; Table S1) | IC50 ([4]; Table S2) | Selectivity PKG T618Q/PKG ([3]; Table S2) | further results |
| --- | --- | --- | --- | --- | --- | --- | --- | --- |
| CN1CCC(Nc2ccc3ncc(-c4cc(F)c(Nc5ccccn5)c(F)c4)n3n2)CC1 [Compound 2] | 1.28 µM | 1.04 µM | 0.069 µM | 12.8 µM |  |  |  |  |
| CN1CCC(Nc2ccc3ncc(-c4ccc(Nc5cnccn5)cc4)n3n2)CC1 [Compound 3] | 0.76 µM | 0.61 µM |  |  | 1.3 |  |  |  |
| CC(C)CCNc1ccc(-c2cnc3ccc(N4CCC(N(C)C)CC4)nn23)cn1 [Compound 5] | 0.54 µM | 0.39 µM |  |  | 1.4 |  |  |  |
| CC(C)CCNc1ccc(-c2cnc3ccc(NC4CCN(C)C4)nn23)cn1 (centres unmarked) [Compound 6] | 0.59 µM | 0.42 µM |  |  | 1.4 |  |  |  |
| CN1CCC(Nc2ccc3ncc(-c4cc(F)c(Nc5ncccc5F)c(F)c4)n3n2)CC1 [Compound 8] | 0.99 µM | 0.66 µM | 0.237 µM | 64.6 µM | 1.5 | 0.017 µM | 272 |  |
| NC1CCC(Nc2ccc3ncc(-c4ccc(Nc5ncccc5F)cc4)n3n2)CC1 (centres unmarked) [Compound 9] | 0.62 µM | 0.4 µM | 0.048 µM | 16.8 µM |  |  |  |  |
| c1ccc(-n2cc(-c3cnc4ccc(NC5CCNCC5)nn34)cn2)cc1 [Compound 10] | 0.72 µM | 0.46 µM |  |  | 1.6 |  |  |  |
| CC(C)CCNc1ccc(-c2cnc3ccc(NC4CCNCC4)nn23)cn1 [Compound 11] | 0.96 µM | 0.6 µM | 0.256 µM | 256 µM | 1.6 | 0.015 µM | 1000 |  |
| CC(C)CCNc1ccc(-c2cnc3ccc(N4CCC(N)CC4)nn23)cn1 [Compound 12] | 0.41 µM | 0.25 µM |  |  | 1.6 |  |  |  |
| Fc1cccnc1Nc1ccc(-c2cnc3ccc(NC4CCNCC4)nn23)cc1 [Compound 13] | 1.25 µM | 0.76 µM | 0.162 µM | 3.68 µM | 1.7 | 0.014 µM | 23 |  |
| CCCCNc1ccc(-c2cnc3ccc(N4CCN(C)CC4)nn23)cn1 [Compound 14] | 2.1 µM | 1.18 µM |  |  | 1.8 |  |  |  |
| CN1CCC(Nc2ccc3ncc(-c4cnc(Nc5cnccn5)c(F)c4)n3n2)CC1 [Compound 15] | 1.74 µM | 0.96 µM | 0.249 µM | 51.3 µM | 1.9 | 0.02 µM | 206 |  |
| CN1CCC(Nc2ccc3ncc(-c4ccc(Nc5ccccn5)c(F)c4)n3n2)CC1 [Compound 16] |  |  | 0.088 µM | 10.6 µM |  |  |  |  |
| CN1CCC(Nc2ccc3ncc(-c4ccc(Nc5ncccc5F)nc4)n3n2)CC1 [Compound 17] | 1.15 µM | 0.58 µM | 0.118 µM | 12.1 µM |  |  |  |  |
| CN1CCC(Nc2ccc3ncc(-c4ccc(Nc5ncccc5F)cc4)n3n2)CC1 [Compound 18] | 1.22 µM | 0.6 µM | 0.404 µM | 15.7 µM |  |  |  |  |
| CCCCNc1ccc(-c2cnc3ccc(N4CCC(N)CC4)nn23)cn1 [Compound 19] | 0.57 µM | 0.26 µM |  |  | 2.2 |  |  |  |
| Fc1cc(-c2cnc3ccc(NC4CCNCC4)nn23)ccc1Nc1ccccn1 [Compound 21] | 1.63 µM | 0.69 µM | 0.087 µM | 3.77 µM | 2.4 | 0.01 µM | 44 |  |
| CC(C)CCNc1ncc(-c2cnc3ccc(NC4CCN(C)CC4)nn23)cn1 [Compound 23] | 2.49 µM | 0.99 µM | 0.16 µM | 4.76 µM | 2.5 | 0.014 µM | 30 |  |

| SMILES | EC50 [1, 7] | EC50 [1, 8] | IC50 ([2]; Table S2) | IC50 ([3]; Table S2) | ratio EC5048:EC5096 ([1]; Table S1) | IC50 ([4]; Table S2) | Selectivity PKG T618Q/PKG ([3]; Table S2) | further results |
| --- | --- | --- | --- | --- | --- | --- | --- | --- |
| Fc1cccnc1Nc1ccc(-c2cnc3ccc(NC4CCNCC4)nn23)cn1 [Compound 24] | 2.45 µM | 0.71 µM | 0.062 µM | 1.25 µM | 3.4 | 0.011 µM | 20 |  |
| Fc1cc(-c2cnc3ccc(NC4CCNCC4)nn23)cnc1Nc1ccccn1 [Compound 25] | 1.96 µM | 0.54 µM | 0.054 µM | 9.93 µM | 3.6 | 0.013 µM | 182 |  |
| c1ccc(Nc2ncc(-c3cnc4ccc(NC5CCNCC5)nn34)cn2)nc1 [Compound 26] | 0.83 µM | 0.2 µM | 0.02 µM | 3.28 µM | 4.2 | 0.009 µM | 161 |  |
| Fc1cc(-c2cnc3ccc(NC4CCNCC4)nn23)cnc1Nc1cnccn1 [Compound 27] | 4.3 µM | 0.84 µM | 0.101 µM | 10 µM | 5.1 | 0.017 µM | 99 |  |
| CC(C)CCNc1ncc(-c2cnc3ccc(NC4CCNCC4)nn23)cn1 [Compound 29] | 3.46 µM | 0.64 µM | 0.093 µM | 0.88 µM | 5.4 | 0.018 µM | 10 |  |
| Fc1cccnc1Nc1ncc(-c2cnc3ccc(NCCN4CCNCC4)nn23)cn1 [Compound 30] | 0.31 µM | 0.05 µM |  |  | 6.0 |  |  |  |
| Fc1cccnc1Nc1ncc(-c2cnc3ccc(NC4CCNCC4)nn23)cn1 [Compound 32] | 1.79 µM | 0.11 µM | 0.007 µM | 6.16 µM | 16.6 | 0.01 µM | 931 |  |
| CN1CCC(Nc2ccc3ncc(-c4cnc(Nc5ncccc5F)nc4)n3n2)CC1 [Compound 33] |  | 0.03 µM | 0.005 µM | 10 µM |  |  |  |  |
| c1nc(N2CCCCC2)ncc1-c1cnc2ccc(NC3CCNCC3)nn12 [Compound 34] |  | 1.18 µM |  |  |  |  |  |  |
| NC1CCC(Nc2ccc3ncc(-c4cnc(Nc5ncccc5F)nc4)n3n2)CC1 (centres unmarked) [Compound 36] |  |  |  |  |  |  |  | EC50 [1, 9]: > 1000 µM; EC50 [1, 10]: 0.02 µM; EC50 [1, 11]: 0.023 µM; EC50 [1, 12]: 0.034 µM; EC50 after treatment for 48 h ([1]; SYBR green I, 48 h incubation, mean of three independent experiments (SD)): not able to be determined with any accuracy; Stage of action (before or after DNA synthesis) [5]: late schizont; Stage of action [5]: Late schizont; EC50 [6, 13]: 0.901 µM |
| CC(C)CCNc1ncc(-c2cnc3ccc(NC4CCC(N)CC4)nn23)cn1 (centres unmarked) [Compound 37] |  | 0.65 µM |  |  |  |  |  |  |
| Fc1cccnc1Nc1ncc(-c2cnc3ccc(NC4CCC(N5CCCC5)CC4)nn23)cn1 (centres unmarked) [Compound 39] |  |  |  |  |  |  |  | EC50 ([1]; SYBR green I, 48 h incubation, mean of three independent experiments (SD), read-out: EC50 after treatment for 48 h): > 1000 µM; EC50 ([1]; SYBR green I, 96 h incubation, mean of three independent experiments (SD), read-out: EC50 after treatment for 96 h): 0.02 µM; EC50 [1, 14]: 0.034 µM; Stage of action (before or after DNA synthesis) [5]: late schizont; Stage of action [5]: Late schizont; IC50 ([2]; Table 2, ATP at Km 20 μM): 0.002 µM; IC50 ([3]; Table 2, ATP at Km 90 μM): 25.5 µM; EC50 [6, 15]: 0.982 µM; Decrease in potency against the PKG T618Q variant parasite ([6]; versus 3D7 WT, 96 h SYBR green I): 29 fold |
| c1cnc(Nc2ncc(-c3cnc4ccc(NC5CCNCC5)nn34)cn2)cn1 [Compound 40] |  | 1.23 µM |  |  |  |  |  |  |
| Fc1cccnc1Nc1ncc(-c2cnc3ccc(NC4CCC(N5CCOCC5)CC4)nn23)cn1 (centres unmarked) [Compound 41] |  |  |  |  |  |  |  | EC50 [1, 9]: > 1000 µM; EC50 [1, 10]: 0.04 µM; EC50 [1, 11]: 0.037 µM; EC50 [1, 12]: 0.042 µM; Stage of action (before or after DNA synthesis) [5]: late schizont; Developmental arrest seen in smears ([5]; parasites about 21 h after invasion, 48 h at 10 times the EC50 determined by FACS (compound C 0.3 μM, compound D 4 μM)): arrested prior to merozoite egress; Stage of action [5]: Late schizont; EC50 [6, 13]: 0.923 µM |
| CNc1ccc2ncc(-c3ccc(NCCC(C)C)nc3)n2n1 [Compound 42] |  |  |  |  |  |  |  | IC50 ([4]; Table 2): 0.081 µM; EC50 [1, 14]: 0.836 µM; 3D7 PKG T618Q/3D7 EC50 ratio ([6]; Table 2): 1.5; EC50 [6, 15]: 1.23 µM; Ratio 3D7 PKG T618Q/3D7 [6]: 1 |
| CC(C)CCNc1ccc(-c2cnc3ccc(NC4CCN(C)CC4)nn23)cn1 [Compound 43] |  |  |  |  |  |  |  | EC50 ([1]; Table S2, 96 h, read-out: Parasite inhibition EC50, 3D7): 0.079 µM; EC50 [6, 15]: 0.093 µM |
| CC(C)CNc1ncc(-c2cnc3ccc(NC4CCN(C)CC4)nn23)cn1 [Compound 44] |  |  |  |  |  |  |  | IC50 ([4]; Table 2): 0.065 µM; EC90 ([1]; 3D7 parasites): 0.65 µM; EC50 [1, 14]: 0.236 µM; 3D7 PKG T618Q/3D7 EC50 ratio ([6]; Table 2): 2.0; EC50 [6, 15]: 0.477 µM; Ratio 3D7 PKG T618Q/3D7 [6]: 2 |
